Assays:
ISF Aβ [1] = assay: ISF Aβ levels by hippocampal microdialysis and sandwich ELISA in APP/PS1+/− transgenic mice; assay type: in vivo; conditions: for ISF levels of Aβ: Example 1
Protocol: Wild-type or APP/PS1+/− transgenic mice at the indicated ages (equal male and female) were implanted with unilateral hippocampal microdialysis probes at stereotaxic coordinates (bregma—3.1 mm, 2.5m lateral to midline, and 1.2 mm below dura at a 12° angle) as described (Cirrito et al. 2003; 2011). These probes contain a 38 kDa MWCO semi-permeable membrane and sample Aβ specifically from within the brain ISF. ISF Aβ was measured every 60-90 minutes for up to 72 hours after probe was inserted into the brain. Throughout each study mice was housed in RaTurn caging systems to provide freedom of movement and ad lib food and water while attached the microdialysis equipment. After probe insertion, animals were allowed to recover for 6 hours in order for the brain to recover and the blood-brain barrier to reform. Microdialysis probe insertion was similar to the procedure described by Cirrito et al. 2003 and 2011. From hours 6-60 after microdialysis probe insertion, ISF Aβ levels were relatively constant which provides the ideal experimental window. After recovery, each mouse had baseline ISF Aβ levels sampled every hour over a 6 hour period followed by administration of either vehicle (saline, pH 6.0 or M DL 100,907. Following drug administration, ISF Aβ was measured every 60-90 minutes for an additional 48 hours. At the end of each experiment ISF Aβ40 was immediately measured by sandwich ELISA. Animals were sacrificed, brains removed, then processed for histological verification of probe placement. FIG. 1A-FIG. 1D discloses the results of Example 1 (MDL 100,907 (M100), a selective 5-HT2A Serotonin Receptor Inverse Agonist on ISF levels of Aβ40 and Aβ42 in wild-type, and in young and aged APP/PS1+/− Transgenic Mice). […] APP/PS1+/− transgenic mice at the indicated ages (equal male and female) were implanted with unilateral hippocampal microdialysis probes at stereotaxic coordinates (bregma—3.1 mm, 2.5m lateral to midline, and 1.2 mm below dura at a 12° angle) as described (Cirrito et al. 2003 and 2011) and ISF Aβ levels measured as described in Example 1. […]

ISF Aβ [2] = assay: ISF Aβ levels by hippocampal microdialysis in wild-type mice; assay type: in vivo; conditions: 2.5 to 3 months, Example 3, pimavanserin 1 mg/kg, MDL 100,907 3 mg/kg
Protocol: Wild-type or APP/PS1+/− transgenic mice at the indicated ages (equal male and female) were implanted with unilateral hippocampal microdialysis probes at stereotaxic coordinates (bregma—3.1 mm, 2.5m lateral to midline, and 1.2 mm below dura at a 12° angle) as described (Cirrito et al. 2003; 2011). These probes contain a 38 kDa MWCO semi-permeable membrane and sample Aβ specifically from within the brain ISF. ISF Aβ was measured every 60-90 minutes for up to 72 hours after probe was inserted into the brain. Throughout each study mice was housed in RaTurn caging systems to provide freedom of movement and ad lib food and water while attached the microdialysis equipment. […] After recovery, each mouse had baseline ISF Aβ levels sampled every hour over a 6 hour period followed by administration of either vehicle (saline, pH 6.0 or M DL 100,907. Following drug administration, ISF Aβ was measured every 60-90 minutes for an additional 48 hours. At the end of each experiment ISF Aβ40 was immediately measured by sandwich ELISA. Animals were sacrificed, brains removed, then processed for histological verification of probe placement. FIG. 1A-FIG. 1D discloses the results of Example 1 (MDL 100,907 (M100), a selective 5-HT2A Serotonin Receptor Inverse Agonist on ISF levels of Aβ40 and Aβ42 in wild-type, and in young and aged APP/PS1+/− Transgenic Mice). […]

ISF Aβ [3] = assay: ISF Aβ levels by hippocampal microdialysis in 5-HT2A−/− mice; assay type: in vivo; conditions: 5-HT2A KO (5-HT2A−/−) mice; Example 3; pimavanserin 1 mg/kg, MDL 100,907 3 mg/kg
Protocol: Following drug administration, ISF Aβ was measured every 3 hours for an additional 24 hours.

beta amyloid = conditions: cited from earlier work; for beta amyloid levels and Plaque Burden: Mouse Model of AD
Aβ40 and Aβ42 [4] = assay: Aβ40 and Aβ42 in 5M guanidine hippocampal extracts (ELISA) after chronic treatment of APP/PS1+/− mice; assay type: in vivo
Text: (§1) Incisions were closed by suture or staple to insure the pumps remained in place. Every 5 weeks pumps were removed and new full pumps implanted in the same manner at a different location on the back to provide continuous drug delivery over the 4 month period. In parallel, age and gender matched cohorts of APP/PS1+/− transgenic mice were sacrificed so that amyloid plaque and Aβ levels at the start of treatment could be compared to mice at the end of treatment. […] At the end of the 4 month treatment period, mice were sacrificed, brains removed, and divided into hemispheres. One hemisphere per mouse was processed for guanidine extraction and biochemical analysis by ELISA of Aβ40 and Aβ42 levels in hippocampus as described in Cirrito et al., 2011, with the 5 Molar Guanidine extracts representing the insoluble fractions of Aβ40 and Aβ42. The insoluble fraction is believed to represent the harmful amyloid plaque deposits that are characteristic of Alzheimer's disease. The other hemisphere was used to perform histological staining and analysis of amyloid plaque growth. Start indicates the age and gender matched cohorts sacrificed at the start of the study. Guan indicates 5 Molar Gaunidine. FIG. 4A) 5M Gaunidine fraction of Aβ40 and Aβ42, all genders. FIG. 4B) 5M Guanidine fraction, male and female.
Male and Female APP/PS1+/− transgenic mice, age 6 months, were implanted with Alzet osmotic minipumps and treated as described in Example 4. At the end of the 4 month treatment period, mice were sacrificed, brains removed, and divided into hemispheres. In parallel, age and gender matched cohorts of APP/PS1+/− transgenic mice were sacrificed so that amyloid plaque and Aβ levels at the start of treatment could be compared to mice at the end of treatment. Start indicates the age and gender matched cohorts sacrificed at the start of the study. Guan indicates 5 Molar Gaunidine. FIG. 6A) 5M Gaunidine fraction of Aβ40 and Aβ42, all genders. FIG. 6B) F) 5M Guanidine fraction of Aβ40 and Aβ42, male and female. […] Example 7.

amyloid plaque = assay: Histological staining of hippocampus for amyloid plaque load after chronic treatment of APP/PS1+/− mice; assay type: in vivo
Text: as §1, with “female. […]” for “female.”

Aβ40 and Aβ42 [5] = assay: Aβ40 and Aβ42 in CSF (ELISA) after chronic treatment of APP/PS1+/− mice; assay type: in vivo; conditions: 6 month old APP/PS1 mice treated for 4 months; Example 8
Text: as §1, with “The other hemisphere was used to perform histological staining and analysis of amyloid plaque growth. Start indicates the age and gender matched cohorts sacrificed at the start of the study. Guan indicates 5 Molar Gaunidine. FIG. 4A) 5M Gaunidine fraction of Aβ40 and Aβ42, all genders. FIG. 4B) 5M Guanidine fraction, male and female.” left out
Male and Female APP/PS1+/− transgenic mice, age 6 months, were implanted with Alzet osmotic minipumps and treated as described in Example 4. At the end of the 4 month treatment period, mice were sacrificed, CSF removed using the method of DeMattos et al., 2002 (see page 230, Materials and Methods), and Aβ40 and Aβ42 levels analyzed by ELISA. […]

SMILES: COc1cccc([C@H](O)C2CCN(CCc3ccc(F)cc3)CC2)c1OC [M100,907, (R)-(+)-α-(2,3-Dimethoxyphenyl)-1-[2-(4-fluorophenyl)ethyl]-4-piperinemethanol]
- ISF levels of Aβ (ISF Aβ [1]; old (12 month old, fully formed amyloid plaques) APP/PS1 mice): robustly lowered levels of Aβ in a dose dependent manner
- ISF levels of Aβ (ISF Aβ [1]; young (3 month old, pre-plaque) APP/PS1 mice): robustly lowered levels of Aβ in a dose dependent manner
- Brain ISF Aβ levels (ISF Aβ [2]): Normalize Brain ISF Aβ Levels
- Aβ-lowering effect on ISF Aβ (ISF Aβ [3]): abolished

SMILES: CN(C)CC(c1ccc(O)cc1)C1(O)CCCCC1 (centres unmarked) [desvenlafaxine]
- beta amyloid levels and Plaque Burden (beta amyloid): lower beta amyloid levels and Plaque Burden

SMILES: CNCCC(Oc1ccc(C(F)(F)F)cc1)c1ccccc1 (centres unmarked) [fluoxetine]
- beta amyloid levels and Plaque Burden (beta amyloid): lower beta amyloid levels and Plaque Burden

SMILES: CC(C)COc1ccc(CNC(=O)N(Cc2ccc(F)cc2)C2CCN(C)CC2)cc1.O=C(O)C(O)C(O)C(=O)O [pimavanserin, N-(1-methylpiperidin-4-yl)-N-(4-fluorophenylmethyl)-N′-(4-(2-methylpropyloxy)phenylmethyl)carbamide]
- ISF Aβ (ISF Aβ [1]; APP/PS1 mice, single bolus doses or continuous infusion, Example 2): robustly lowered ISF Aβ in APP/PS1 mice in a dose dependent manner
- Brain ISF Aβ levels (ISF Aβ [2]): Normalize Brain ISF Aβ Levels
- Aβ40 (guanidine fraction) in male mice, treated group (age 10 months) compared to start group (age 6 months) (Aβ40 and Aβ42 [4]; male mice, Example 6B): reduction in Aβ40
- levels of the guanidine fraction of Aβ40 and Aβ42 in hippocampus, compared to vehicle treated mice (Aβ40 and Aβ42 [4]; treatment from age 4.5 months for 4 months, osmotic minipump 3 mg/kg/day, Example 4): highly significant reduction
- levels of Aβ40 and Aβ42 (guanidine fraction), treated group at end compared to 'Start' group (Aβ40 and Aβ42 [4]; treatment from age 4.5 months for 4 months, Example 4): not a significant difference
- levels of the guanidine fraction of Aβ40 and Aβ42 in hippocampus, compared to vehicle treated mice (Aβ40 and Aβ42 [4]; treatment from age 6 months for 4 months, osmotic minipump, Example 6): highly significant reduction
- levels of Aβ40 and Aβ42 (guanidine fraction), treated group at end compared to 'Start' group (Aβ40 and Aβ42 [4]; treatment from age 6 months for 4 months, Example 6): not a significant difference
- amyloid plaque in hippocampus (histological staining), compared to vehicle treated mice (amyloid plaque; treatment from age 4.5 months for 4 months, Example 5): highly significant decreases of amyloid plaque
- amyloid plaque in hippocampus (histological staining), compared to vehicle treated mice (amyloid plaque; treatment from age 6 months for 4 months, Example 7): highly significant decreases of amyloid plaque
- Aβ in CSF (Aβ40 and Aβ42 [5]): significantly lowered Aβ

SMILES: NCCc1c[nH]c2ccc(O)cc12 [serotonin]
- ISF Aβ40 and Aβ42 levels (beta amyloid; direct infusion into the hippocampus): reduced ISF Aβ40 and Aβ42 levels

— patent publication US20220000852A1, “5-HT2A SEROTONIN RECEPTOR INVERSE AGONISTS OR ANTAGONISTS FOR USE IN REDUCING AMYLOID-BETA PEPTIDES AND ACCUMULATION OF AMYLOID PLAQUES” (ACADIA Pharmaceuticals Inc., priority 2016, published 2022)
